In US10508086B2 (CANCER RESEARCH TECHNOLOGY LIMITED, priority 2014, dated 2019):

Biological target: Human Full Length PARG (Homo sapiens (Human), UniProt Q86W56)
Experiment: PARG in vitro enzyme assay (TR-FRET)
Assay type: biochemical
Settings: read-out: PARG_EC50_ENZYME
Method: PARG In vitro assays were conducted in a total volume of 15 ul in a standard 384 well format. 5 ul of Human Full Length PARG (Produced internally by Astra Zeneca), used at a final reaction concentration of […], was added to 5 ul of Ribosylated PARP substrate (also produced internally by Astra Zeneca) at final reaction concentration of 4.5 nM in assay buffer (50 mM Tris pH7.4, 0.1 mg/ml BSA, 3 mM EDTA, 0.4 mM EGTA, 1 mM DTT, 0.01% Tween 20, 50 mM KCl). The reaction was incubated at room temperature for 10 minutes and then 5 ul detection reagent was added. Detection Reagent consists of 42 nM MAb Anti-6HIS XL665 (CisBio: 61 HISXLB) and 2.25 nM Streptavidin Europium Cryptate (CisBio: 610SAKLB), both at 3× working stock concentrations (final concentrations of 14 nM and 0.75 nM respectively), in a detection buffer of 50 mM Tris pH7.4, BSA at 0.1 mg/ml and KF at 100 mM. Following incubation at room temperature for 60 minutes in the dark, TR-FRET signal was measured at Ex 340 and Em 665 and Em 620. A ratio was calculated as Em665/EM620×104 for each well and used to calculate percent inhibition for test compounds.

Sequence of Human Full Length PARG (Q86W56 whole entry): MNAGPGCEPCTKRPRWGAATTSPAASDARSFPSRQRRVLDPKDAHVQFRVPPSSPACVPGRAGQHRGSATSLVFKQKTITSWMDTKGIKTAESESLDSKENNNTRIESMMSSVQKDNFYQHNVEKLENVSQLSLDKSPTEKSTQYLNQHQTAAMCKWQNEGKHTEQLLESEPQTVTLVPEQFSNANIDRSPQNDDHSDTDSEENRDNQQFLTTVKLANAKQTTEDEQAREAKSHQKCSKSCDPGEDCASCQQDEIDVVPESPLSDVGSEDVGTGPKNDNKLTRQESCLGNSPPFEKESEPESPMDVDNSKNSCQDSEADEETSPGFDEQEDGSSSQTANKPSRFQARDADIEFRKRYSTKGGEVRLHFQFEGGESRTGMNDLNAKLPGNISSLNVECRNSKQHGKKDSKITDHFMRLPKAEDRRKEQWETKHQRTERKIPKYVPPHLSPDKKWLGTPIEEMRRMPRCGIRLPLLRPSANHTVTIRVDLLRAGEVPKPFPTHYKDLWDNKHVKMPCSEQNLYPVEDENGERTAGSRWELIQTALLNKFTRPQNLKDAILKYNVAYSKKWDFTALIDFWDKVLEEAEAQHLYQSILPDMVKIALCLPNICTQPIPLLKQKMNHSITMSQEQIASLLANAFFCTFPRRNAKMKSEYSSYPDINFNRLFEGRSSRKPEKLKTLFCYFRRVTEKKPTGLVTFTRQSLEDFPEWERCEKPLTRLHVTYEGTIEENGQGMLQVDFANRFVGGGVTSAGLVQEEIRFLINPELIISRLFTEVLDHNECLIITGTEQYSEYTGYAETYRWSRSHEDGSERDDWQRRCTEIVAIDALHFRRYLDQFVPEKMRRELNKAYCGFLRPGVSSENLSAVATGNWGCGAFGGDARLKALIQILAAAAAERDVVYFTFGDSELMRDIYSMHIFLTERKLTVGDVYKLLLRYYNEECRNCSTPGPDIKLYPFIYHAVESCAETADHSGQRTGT

| Structure (SMILES) | EC50 [nM] |
| --- | --- |
| CN(C)C(=O)CCc1cnc(-n2c(=O)n(C)c3ccc(S(=O)(=O)NC4(C)CC4)cc32)s1 [Example 71, N, N-Dimethyl-3-[2-[3-methyl-6-[(1-methylcyclopropyl)sulfamoyl]-2-oxo-benzimidazol-1-yl]thiazol-5-yl]propanamide] | 7050 |
| CC1(NS(=O)(=O)c2ccc3c(c2)[nH]c(=O)n3Cc2ccc(F)cc2)CC1 [Example 72, 1-[(4-Fluorophenyl)methyl]-N-(1-methylcyclopropyl)-2-oxo-3H-benzimidazole-5-sulfonamide] | 8300 |
| CNC(=O)CCc1cnc(-n2c(=O)n(C)c3ccc(S(=O)(=O)NC4(C)CC4)cc32)s1 [Example 74, N-methyl-3-[2-[3-methyl-6-[(1-methylcyclopropyl)sulfamoyl]-2-oxo-benzimidazol-1-yl]thiazol-5-yl]propanamide] | 9730 |
| CCOC(=O)n1c(=O)n(Cc2ccc(F)cc2)c2ccc(S(=O)(=O)NC3(C)CC3)cc21 [Example 75] | 925 |
| CC1(NS(=O)(=O)c2ccc3c(c2)n(-c2nccs2)c(=O)n3Cc2ccc(F)cc2)CC1 [Example 76] | 2710 |
| Cc1nc(C)c(Cn2c(=O)n(-c3cnsc3)c3cc(S(=O)(=O)NC4(C)CC4)ccc32)s1 [Example 93] | 1340 |
| Cc1nc(C)c(Cn2c(=O)n(-c3cscn3)c3cc(S(=O)(=O)NC4(C)CC4)ccc32)s1 [Example 95] | 740 |
| Cc1nc(C)c(Cn2c(=O)n(-c3ccn(C)n3)c3cc(S(=O)(=O)NC4(C)CC4)ccc32)s1 [Example 96] | 7030 |
| Cc1nc(C)c(Cn2c(=O)n(-c3cncs3)c3cc(S(=O)(=O)NC4(C)CC4)ccc32)s1 [Example 97] | 816 |
| Cc1csc(-n2c(=O)n(Cc3sc(C)nc3C)c3ccc(S(=O)(=O)NC4(C)CC4)cc32)n1 [Example 106] | 1520 |
| Cc1nc(C)c(Cn2c(=O)n(-c3cccnn3)c3cc(S(=O)(=O)NC4(C)CC4)ccc32)s1 [Example 109] | 878 |
| Cc1nc(C)c(Cn2c(=O)n(C3=CCCC3)c3cc(S(=O)(=O)NC4(C)CC4)ccc32)s1 [Example 113] | 632 |
| CCOC(=O)n1cc(Cc2sc(C)nc2C)c2ccc(S(=O)(=O)NC3(C)CC3)cc21 [Example 132, Ethyl 3-[(2,4-dimethylthiazol-5-yl)methyl]-6-[(1-methylcyclopropyl)sulfamoyl]indole-1-carboxylate] | 7420 |
| Cc1nnc(-n2c(=O)n(CCCN(C)C)c3ccc(S(=O)(=O)NC4(C)CC4)cc32)o1 [Example 133] | 1140 |
| Cc1nnc(-n2c(=O)n(CCN(C)C)c3ccc(S(=O)(=O)NC4(C)CC4)cc32)o1 [Example 137] | 2280 |
| Cc1nnc(-n2c(=O)n(CC3CCCCN3C)c3ccc(S(=O)(=O)NC4(C)CC4)cc32)o1 (stereo not shown) [Example 138] | 1020 |
| Cc1nnc(-n2c(=O)n(CC3CCCN(C)C3)c3ccc(S(=O)(=O)NC4(C)CC4)cc32)o1 (stereo not shown) [Example 139] | 1150 |
| Cc1nnc(-n2c(=O)n(CCN3CCCCC3)c3ccc(S(=O)(=O)NC4(C)CC4)cc32)o1 [Example 140] | 1970 |
| Cc1nnc(-n2c(=O)n(CCN3CCOCC3)c3ccc(S(=O)(=O)NC4(C)CC4)cc32)o1 [Example 141] | 1120 |
| Cc1nnc(-n2c(=O)n(CCN3CCCC3)c3ccc(S(=O)(=O)NC4(C)CC4)cc32)o1 [Example 142] | 3800 |

Further lines, results first:

| EC50 [nM] | Structure (SMILES) |
| --- | --- |
| 5000 | Cn1c(=O)n(-c2nncs2)c2cc(S(=O)(=O)NC3(C)CC3)ccc21 [Example 77] |
| 717 | Cn1c(=O)n(-c2nnc(C(F)(F)F)s2)c2cc(S(=O)(=O)NC3(C)CC3)ccc21 [Example 78] |
| 732 | Cc1nnc(-n2c(=O)[nH]c3ccc(S(=O)(=O)NC4(C)CC4)cc32)s1 [Example 80, N-(1-Methylcyclopropyl)-3-(5-methyl-1,3,4-thiadiazol-2-yl)-2-oxo-1H-benzimidazole-5-sulfonamide] |
| 684 | Cc1nnc(-n2c(=O)n(CCN(C)C)c3ccc(S(=O)(=O)NC4(C)CC4)cc32)s1 [Example 85] |
| 9270 | Cc1nc(C)c(Cn2c(=O)[nH]c3cc(S(=O)(=O)NC4(C)CC4)ccc32)s1 [Example 89, 1-[(2,4-Dimethylthiazol-5-yl)methyl]-N-(1-methylcyclopropyl)-2-oxo-3H-benzimidazole-5-sulfonamide] |
| 1460 | Cc1nnc(-n2c(=O)[nH]c3ccc(S(=O)(=O)NC4(C)CC4)cc32)o1 [Example 94, N-(1-Methylcyclopropyl)-3-(5-methyl-1,3,4-oxadiazol-2-yl)-2-oxo-1H-benzimidazole-5-sulfonamide] |
| 234 | Cc1nc(C)c(Cn2c(=O)n(-c3nncs3)c3cc(S(=O)(=O)NC4(C)CC4)ccc32)s1 [Example 110] |
| 679 | Cc1nnc(-n2c(=O)n(C)c3c(F)cc(S(=O)(=O)NC4(C)CC4)cc32)s1 [Example 114, 7-Fluoro-1-methyl-N-(1-methylcyclopropyl)-3-(5-methyl-1,3,4-thiadiazol-2-yl)-2-oxo-benzimidazole-5-sulfonamide] |
| 2320 | Cc1nnc(-n2ccc3ccc(S(=O)(=O)NC4(C)CC4)cc32)s1 [Example 115, N-(1-Methylcyclopropyl)-1-(5-methyl-1,3,4-thiadiazol-2-yl)indole-6-sulfonamide] |
| 867 | Cc1nnc(-n2c(Cc3cnn(C)c3)nc3ccc(S(=O)(=O)NC4(C)CC4)cc32)s1 [Example 120] |
| 1020 | Cc1nnc(-n2c(CCc3cnn(C)c3)nc3ccc(S(=O)(=O)NC4(C)CC4)cc32)s1 [Example 121] |
| 1530 | Cc1nnc(-n2c(C)nc3ccc(S(=O)(=O)NC4(C)CC4)cc32)s1 [Example 122] |
| 734 | Cc1nnc(-n2c(=O)n(C)c3c(C(F)(F)F)cc(S(=O)(=O)NC4(C)CC4)cc32)s1 [Example 123, 1-Methyl-N-(1-methylcyclopropyl)-3-(5-methyl-1,3,4-thiadiazol-2-yl)-2-oxo-7-(trifluoromethyl)benzimidazole-5-sulfonamide] |
| 7680 | CC(=O)NCc1nc2ccc(S(=O)(=O)NC3(C)CC3)cc2n1-c1nnc(C)s1 [Example 124] |
| 2560 | Cc1nnc(-n2c(CCN)nc3ccc(S(=O)(=O)NC4(C)CC4)cc32)s1 [Example 125] |
| 4280 | Cc1nnc(-n2cc(Cc3ccccc3)c3ccc(S(=O)(=O)NC4(C)CC4)cc32)s1 [Example 126, 3-Benzyl-N-(1-methylcyclopropyl)-1-(5-methyl-1,3,4-thiadiazol-2-yl)indole-6-sulfonamide] |
| 6050 | Cc1nnc(-n2cc(Cc3ccc(F)cc3)c3ccc(S(=O)(=O)NC4(C)CC4)cc32)s1 [Example 127, 3-[(4-Fluorophenyl)methyl]-N-(1-methylcyclopropyl)-1-(5-methyl-1,3,4-thiadiazol-2-yl)indole-6-sulfonamide] |
| 2110 | Cc1nnc(-n2cc(CC3CC3)c3ccc(S(=O)(=O)NC4(C)CC4)cc32)s1 [Example 128, 3-(Cyclopropylmethyl)-N-(1-methylcyclopropyl)-1-(5-methyl-1,3,4-thiadiazol-2-yl)indole-6-sulfonamide] |
| 910 | COCCn1c(=O)n(-c2nnc(C)o2)c2cc(S(=O)(=O)NC3(C)CC3)ccc21 [Example 134] |
| 567 | Cc1nnc(-n2c(=O)n(CC3CCCN(C)C3)c3ccc(S(=O)(=O)NC4(C)CC4)cc32)s1 (stereo not shown) [Example 136] |
